Results reported in the supplement of paper PMC10307832.

Experiments:
Test in all cases: relative viability (nuclei count vs DMSO), 5 days (fraction); higher = more cells survive
[1] = compound: O=S(=O)(c1ccccc1)N(CC(F)(F)F)c1ccc(C(O)(C(F)(F)F)C(F)(F)F)cc1 + C[C@@H](Oc1cc(-c2cnn(C3CCNCC3)c2)cnc1N)c1c(Cl)ccc(F)c1Cl [Crizotinib] (partner 1 µM)
Procedure, shortened: (§1)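 Lung cancer cell lines were pin-tool dosed in 1536-well plates on the day after seeding, with either a lone drug or a fixed anchor-drug dose plus five library-drug doses (not always all listed) in √10 steps. Nuclei were counted on 4× images after 5 days. Relative viability is the ratio of treated-well to vehicle-well nuclei counts, with each value a median of duplicate plates.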

RO-3306 + Tozasertib = compound: C1=CC2=C(C=CC(=C2)C=C3C(=O)NC(=NCC4=CC=CS4)S3)N=C1 [RO-3306] + Cc1cc(Nc2cc(N3CCN(C)CC3)nc(Sc3ccc(NC(=O)C4CC4)cc3)n2)n[nH]1 [Tozasertib] (partner 0.1 µM)
Procedure, shortened: as §1

[2] = compound: O=S(=O)(c1ccccc1)N(CC(F)(F)F)c1ccc(C(O)(C(F)(F)F)C(F)(F)F)cc1 + O=C(CCCCCCC(=O)Nc1ccccc1)NO [Vorinostat] (partner 1 µM)
Procedure, shortened: as §1

RO-3306 + Bortezomib = compound: C1=CC2=C(C=CC(=C2)C=C3C(=O)NC(=NCC4=CC=CS4)S3)N=C1 [RO-3306] + CC(C)C[C@H](NC(=O)[C@H](Cc1ccccc1)NC(=O)c1cnccn1)B(O)O [Bortezomib] (partner 0.002 µM)
Procedure, shortened: as §1

Row | Cell Line | relative viability ([1]; first compound 0.8 µM) | relative viability ([1]; first compound 2.53 µM) | relative viability ([1]; first compound 8 µM) | relative viability (RO-3306 + Tozasertib; first compound 0.01 µM) | relative viability (RO-3306 + Tozasertib; first compound 0.03162 µM) | relative viability (RO-3306 + Tozasertib; first compound 0.1 µM) | relative viability (RO-3306 + Tozasertib; first compound 0.3162 µM) | relative viability (RO-3306 + Tozasertib; first compound 1 µM) | relative viability ([2]; first compound 0.8 µM) | relative viability ([2]; first compound 2.53 µM) | relative viability ([2]; first compound 8 µM) | relative viability (RO-3306 + Bortezomib; first compound 0.01 µM) | relative viability (RO-3306 + Bortezomib; first compound 0.03162 µM) | relative viability (RO-3306 + Bortezomib; first compound 0.1 µM) | relative viability (RO-3306 + Bortezomib; first compound 0.3162 µM) | relative viability (RO-3306 + Bortezomib; first compound 1 µM)
1 | 201T | 1 | 0.902 | 1 | 1 | 0.933 | 0.925 | 0.975 | 0.964 | 0.953 | 0.918 | 0.865 | 1.11 | 1.11 | 1.07 | 1.11 | 0.934
2 | A549 | 0.884 | 0.74 | 0.703 | – | – | – | – | – | – | – | – | – | – | – | – | –
3 | A-427 | 0.929 | 0.793 | 0.872 | 0.173 | 0.181 | 0.166 | 0.173 | 0.235 | 0.85 | 0.803 | 0.812 | 0.935 | 1.04 | 0.942 | 0.906 | 0.478
4 | ABC-1 | 1.19 | 1.07 | 1.01 | 0.145 | 0.172 | 0.222 | 0.177 | 0.14 | – | 0.882 | 0.912 | 0.262 | 0.396 | 0.28 | 0.287 | 0.274
5 | BEN | 0.952 | 0.89 | 0.766 | 0.548 | 0.47 | 0.622 | 0.608 | 0.496 | 0.581 | 0.543 | 0.566 | 0.795 | 0.724 | 0.867 | 0.849 | 0.747
6 | CAL-12T | 0.708 | 0.417 | 0.477 | 0.364 | 0.245 | 0.303 | 0.371 | 0.261 | 0.672 | 0.578 | 0.548 | 0.956 | – | – | 0.992 | 1.09
7 | COR-L23 | 0.644 | 0.472 | 0.597 | 0.238 | 0.175 | 0.178 | 0.169 | 0.166 | 0.522 | 0.543 | 0.423 | 1.03 | – | 1.1 | 1.02 | 0.772
8 | COR-L 105 | 0.876 | 0.839 | 0.661 | 0.361 | 0.337 | 0.329 | 0.379 | 0.32 | 0.615 | 0.706 | 0.66 | 0.792 | 0.718 | 0.777 | 0.822 | 0.622
9 | Calu-6 | 0.7 | 0.668 | 0.649 | – | – | – | – | – | – | – | – | 1.07 | 1.06 | 1.05 | 0.995 | 1.01
10 | ChaGo-K-1 | 1.31 | 1.07 | 0.613 | 0.209 | 0.234 | 0.209 | 0.216 | 0.234 | 0.885 | 0.732 | 0.655 | 1.01 | 0.935 | 0.656 | 0.756 | 0.673
11 | EBC-1 | 0.234 | 0.29 | 0.293 | – | – | – | – | – | – | – | – | 0.616 | 0.5 | 0.501 | 0.529 | 0.572
12 | EKVX | 1.09 | 0.85 | 0.898 | 0.415 | 0.361 | 0.382 | 0.359 | 0.356 | 0.697 | 0.513 | 0.535 | 1.23 | 0.923 | 1.06 | 1.12 | 0.989
13 | EMC-BAC-2 | 0.844 | 0.731 | 0.577 | 0.394 | 0.306 | 0.295 | 0.263 | 0.254 | 0.336 | 0.296 | 0.467 | 1.21 | 0.912 | 1.11 | 1.06 | 1.01
14 | EPLC-272H | 1.24 | 0.742 | 0.841 | 0.196 | 0.288 | 0.208 | 0.237 | 0.249 | 0.319 | 0.476 | 0.396 | 0.735 | 0.526 | 0.825 | 0.769 | 0.843
15 | H3255 | 0.755 | 0.776 | 0.829 | 0.621 | 0.372 | 0.611 | 0.692 | 0.466 | 0.716 | 0.752 | 0.667 | 0.747 | 0.707 | 0.738 | 0.792 | 0.677
16 | HARA | 0.98 | 0.945 | 0.682 | 0.146 | 0.11 | 0.453 | 0.0948 | 0.101 | 0.507 | 0.509 | 0.388 | 1.15 | 0.74 | 1.11 | 1.11 | 0.991
17 | HCC-15 | 0.867 | 0.766 | 0.676 | 0.438 | 0.342 | 0.345 | 0.383 | 0.301 | 0.748 | 0.682 | 0.63 | 1.04 | 0.804 | 1.01 | 1.06 | 0.727
18 | HCC-44 | 0.926 | 0.749 | 0.699 | 1.17 | 0.947 | 0.925 | 0.873 | 0.676 | 0.981 | 0.972 | 0.953 | 0.879 | 0.914 | 0.926 | 0.882 | 0.711
19 | HCC-78 | 0.375 | 0.285 | 0.334 | 0.436 | 0.4 | 0.515 | 0.431 | 0.448 | 0.489 | 0.414 | 0.425 | 0.433 | 0.362 | 0.511 | 0.572 | 0.543
20 | HCC-366 | 0.903 | 0.54 | 0.314 | 0.123 | 0.0945 | 0.0992 | 0.0958 | 0.0525 | 0.506 | 0.325 | 0.279 | 1.05 | 0.633 | 1.01 | 1.16 | 1.06
21 | HCC-827 | 0.932 | 0.917 | 0.95 | 0.452 | 0.417 | 0.376 | 0.4 | 0.419 | 0.874 | 0.842 | 0.781 | 0.995 | 0.907 | 1.13 | 1.02 | 1.04
22 | HOP-62 | 1.04 | 0.871 | 0.913 | 0.346 | 0.304 | 0.353 | 0.39 | 0.377 | 0.716 | 0.508 | 0.522 | 0.505 | 0.961 | 0.674 | 0.882 | 1.03
